Measurements published in publication PMC5522529, “Mechanisms of Paradoxical Activation of AMPK by the Kinase Inhibitors SU6656 and Sorafenib” (Cell Chemical Biology, 2017).

Columns and labels:
[1] = target: T1, AMPK-γ2 R531G (RG) mutant (Homo sapiens, UniProt Q9UGJ0, R531G); experiment: AMPK activity in HEK293 cells expressing R531G AMPK-γ2; type: cell-based; conditions: 1 hr
T1 construct: expressed in transfected cells
Text: The next possibility was that, like several other AMPK-activating drugs, SU6656 inhibits mitochondrial ATP synthesis, and thus activates AMPK indirectly by increasing cellular AMP/ADP. To test this, we used cell lines inducibly expressing either WT AMPK-γ2 or an AMP/ADP-resistant R531G (RG) mutant ([Hawley et al., 2010]). […] There were no effects of SU6656 on cellular oxygen uptake, unlike berberine. Subsequent addition of the uncoupler 2,4-dinitrophenol (DNP), which prevents the respiratory chain from being limited by ADP supply, increased oxygen uptake identically in control and SU6656-treated cells but had no effect following berberine, as expected for a complex I inhibitor (Figure S2).
(§1) (B) WT or RG cells were treated as in (A) and nucleotides extracted for analysis (mean ± SD, n = 3). […] (E) (See also Figure S2) Time courses of cellular oxygen uptake before and after addition of the indicated concentrations of sorafenib (SO, μM), SU6656 (100 μM) or phenformin (PHEN, 10 mM) (mean ± SEM, n = 4). (F) Effect of various concentrations of sorafenib or phenformin (10 mM) on activation (top, mean ± SEM, n = 3) or phosphorylation (bottom) of AMPK in cells expressing wild-type AMPK-γ2 (WT) or the R531G mutant AMPK-γ2 (RG). In all panels, asterisks show significant differences from DMSO controls (ns, not significant). In (B), daggers (†) show significant differences between results in WT and RG cells. *p < 0.05, **p < 0.01, ***p < 0.001, ****p < 0.0001, ^††††p < 0.0001.
HEK-293 cells stably expressing tetracycline-inducible FLAG-tagged human AMPK-γ2, or an R531G mutant, were generated by introducing the corresponding DNAs into Flp-In™ T-REx™ 293 cells ([Auciello et al., 2014]). Expression of the FLAG-tagged constructs was induced for 48 hr using tetracycline (1 μg.ml^-1) prior to addition of compounds under test. Transient transfections were carried out 36-48 hr prior to experiments, using Fugene 6 according to manufacturers’ instructions.

HEK293 cells = experiment: Cellular oxygen uptake; type: cell-based, human
Description: as §1
Cellular oxygen consumption rate was measured using a Seahorse XF24 Extracellular Flux Analyser according to manufacturers’ instructions, as specified previously ([Hawley et al., 2010]).
Oxygen uptake of HEK-293 cells measured under basal conditions
(open bars), after addition of the indicated concentration of SU6656 or berberine (300 µM) (gray bars), then after subsequent addition of the uncoupler 2,4-dinitrophenol (DNP, hatched bars, 100 µM) […]
different before and after addition of SU6656 or berberine, while […]
subsequent addition of DNP.

[2] = target: T2, endogenous full-length α1 complexes (Homo sapiens, UniProt Q13131); experiment: Activity of endogenous full-length α1 complexes in HEK293 cells; type: cell-based; conditions: 1 hr
T2 construct: endogenous in cells
T2 sequence (Q13131 whole entry): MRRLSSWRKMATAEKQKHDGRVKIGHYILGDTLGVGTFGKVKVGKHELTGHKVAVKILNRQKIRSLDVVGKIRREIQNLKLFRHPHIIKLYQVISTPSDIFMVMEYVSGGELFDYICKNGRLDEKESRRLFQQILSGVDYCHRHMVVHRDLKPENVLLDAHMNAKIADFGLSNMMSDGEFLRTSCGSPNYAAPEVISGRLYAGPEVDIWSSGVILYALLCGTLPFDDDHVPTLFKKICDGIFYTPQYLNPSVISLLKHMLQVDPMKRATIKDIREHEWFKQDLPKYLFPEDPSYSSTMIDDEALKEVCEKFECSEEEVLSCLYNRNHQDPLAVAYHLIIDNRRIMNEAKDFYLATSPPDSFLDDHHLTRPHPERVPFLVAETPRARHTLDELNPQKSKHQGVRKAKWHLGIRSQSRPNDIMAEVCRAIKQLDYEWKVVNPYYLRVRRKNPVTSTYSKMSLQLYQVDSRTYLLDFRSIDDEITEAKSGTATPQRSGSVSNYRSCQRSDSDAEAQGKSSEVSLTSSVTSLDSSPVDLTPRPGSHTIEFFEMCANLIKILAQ
T2 sequence (P54619 whole entry partner): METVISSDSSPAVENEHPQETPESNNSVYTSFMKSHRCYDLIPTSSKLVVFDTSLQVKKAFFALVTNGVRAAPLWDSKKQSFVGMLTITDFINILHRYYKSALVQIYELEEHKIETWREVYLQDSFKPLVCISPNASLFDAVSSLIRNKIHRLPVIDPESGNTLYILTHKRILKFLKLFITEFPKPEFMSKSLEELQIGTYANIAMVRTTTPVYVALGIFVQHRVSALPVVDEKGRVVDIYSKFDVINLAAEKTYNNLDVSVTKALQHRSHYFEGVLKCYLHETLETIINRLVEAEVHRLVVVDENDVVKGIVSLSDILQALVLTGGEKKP
Text: We next expressed an FLAG-tagged α1 kinase domain (α1-KD, residues 1–312) by transient transfection in HEK293 cells, treated the cells with various AMPK activators, and then assayed both the expressed α1-KD (precipitated using anti-FLAG) and endogenous full-length α1 complexes (precipitated using anti-α1 antibodies recognizing an epitope outside the α1-KD). […] This was also observed with A23187, as expected since this ionophore increases intracellular Ca^2+ and activates the alternate upstream kinase CaMKK2.
The α1-KD was precipitated using anti-FLAG and endogenous AMPK complexes using anti-α1 antibody, and activity determined. Results (mean ± SD, n = 2) are expressed relative to activities in DMSO controls. (B) Western blots (n = 2) using the indicated antibodies; samples from experiment in (A). (C) DNAs encoding FLAG-tagged AMPK-α1 (WT or AT mutant) were expressed by transient transfection in HEK293 cells, the cells treated with increasing concentrations of SU6656 for 1 hr, AMPK complexes precipitated with anti-FLAG, and activity measured. Results (mean ± SD, n = 3) are expressed relative to the DMSO control. […] Results (mean ± SD, n = 3) are expressed relative to the DMSO control. **p < 0.01, ***p < 0.001, ****p < 0.0001, ^†††p < 0.001; ns, not significant.

ACC = ACC phosphorylation in HEK293 cells (western blot); type: cell-based, human; conditions: 1 hr
Description: Figure 1 SU6656 Activates AMPK but Not AMPK-Related Kinases (A) HEK293 cells were incubated with the indicated concentrations of SU6656 or berberine (300 μM) for 1 hr; total AMPK activity was assayed in immunoprecipitates (top; mean ± SEM, n = 4), and phosphorylation of AMPK (Thr172), ACC (Ser80), and Raptor (Ser792) analyzed by western blotting (bottom; n = 2). (B) HEK293 cells were incubated with 100 μM SU6656 (1 hr), AMPK complexes containing α1, α2, β1, and β2 immunoprecipitated using isoform-specific antibodies, and AMPK activity measured (mean ± SEM, n = 4). (C) HeLa cells stably expressing LKB1 ([Fogarty et al., 2010]) were incubated with 100 μM SU6656 for 1 hr, AMPK or individual ARKs immunoprecipitated, and kinase assays carried out (antibodies that distinguish MARK2/MARK3 were not available, so they were assayed together). Results are means ± SEM (n = 2). In all panels, asterisks indicate significant differences from controls without SU6656. *p < 0.05, **p < 0.01, ****p < 0.0001.
as §1, with “In (B), daggers (†) show significant differences between results in WT and RG cells. *p < 0.05, **p < 0.01, ***p < 0.001, ****p < 0.0001, ^††††p < 0.0001.” left out
Cells were incubated for 60 min and AMPK activity measured; results in the top panel are means ± SEM (n = 8), with significant differences from the DMSO control indicated (ns, not significant). […]
SDS-PAGE was performed using precast Bis-Tris 4–12% gradient polyacrylamide gels in the MOPS buffer system (ThermoFisher Scientific). […] Protein concentrations were determined by Coomassie Blue binding with bovine serum albumin as standard ([Bradford, 1976]). […]

T1 sequence (Q9UGJ0 whole entry R531G): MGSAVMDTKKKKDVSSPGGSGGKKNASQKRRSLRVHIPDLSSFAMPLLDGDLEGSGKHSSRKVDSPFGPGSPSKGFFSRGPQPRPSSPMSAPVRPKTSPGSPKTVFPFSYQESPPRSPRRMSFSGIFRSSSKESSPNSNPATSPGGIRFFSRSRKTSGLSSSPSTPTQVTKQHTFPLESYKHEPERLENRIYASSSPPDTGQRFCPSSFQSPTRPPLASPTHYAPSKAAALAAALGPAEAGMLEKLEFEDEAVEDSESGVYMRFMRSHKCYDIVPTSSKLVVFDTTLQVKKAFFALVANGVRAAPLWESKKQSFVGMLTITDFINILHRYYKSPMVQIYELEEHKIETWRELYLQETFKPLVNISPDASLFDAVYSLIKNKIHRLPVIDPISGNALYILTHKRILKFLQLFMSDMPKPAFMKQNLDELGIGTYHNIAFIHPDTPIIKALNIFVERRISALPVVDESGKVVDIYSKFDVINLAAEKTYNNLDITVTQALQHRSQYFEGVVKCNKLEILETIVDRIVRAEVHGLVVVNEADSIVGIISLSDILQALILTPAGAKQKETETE

| kinase activity / Thr172 phosphorylation [2] | SMILES | AMPK activity [1] | cellular oxygen uptake (HEK293 cells) | ACC phosphorylation (ACC) | concentrations that rapidly inhibited cellular oxygen uptake (HEK293 cells) [µM] |
| --- | --- | --- | --- | --- | --- |
| increased kinase activity | CN(C)S(=O)(=O)c1ccc2c(c1)/C(=C/c1cc3c([nH]1)CCCC3)C(=O)N2 [SU6656] | activated AMPK and enhanced Thr172 phosphorylation in both WT and RG cells | no effects | increased phosphorylation | – |
| doing this with the endogenous complexes | COc1ccc2cc3[n+](cc2c1OC)CCc1cc2c(cc1-3)OCO2 [berberine] | – | – | – | – |
| – | CNC(=O)c1cc(Oc2ccc(NC(=O)Nc3ccc(Cl)c(C(F)(F)F)c3)cc2)ccn1 [sorafenib] | Neither AMPK activity nor Thr172 phosphorylation were significantly elevated | – | promoted Thr172 and ACC phosphorylation | 3 to 30 |
